Reference: patent publication US9139551B2, “Preparation of a new class of water-soluble ammonium 2,3-dihydroxy-5-((2R,3R)-3,5,7-trihydroxy-4-oxochroman-2-yl) phenolates and their biological activity of alcohol elimination” (priority 2014, dated 2015)
Marks after values point to notes of the source that are not given here.

Assays:
mice [1] = assay: Acute toxicity, intraperitoneal administration (mortality, LD50, body weight, dietary); assay type: in vivo; conditions: for Dead number: 20 mice; for Dead number / mortality: 7 days
Description: Acute Toxicity • Compounds PDHM/TDHM.
140 mice were divided into 7 groups (n=20), each group include 10 males and 10 females, they were treated with different concentrations of dosages and observed for 7 days. Specific experimental groups and experimental results were noted below. Note: Section 1-6 group compound are PDHM groups, and group 7 is a negative control group.
140 mice were divided into 7 groups (n=20), each group include 10 males and 10 females, they were treated with different concentrations of dosage and observed for 7 days. Note: Section 1-6 group compound are PDHM groups, and group 7 is a negative control group.

Balb/C mice [2] = assay: Plasma EtOH concentration assay; assay type: in vivo; conditions: intragastric 2 mg/kg
Description: Plasma EtOH Concentration Assay. • Blood samples from the tail vein of mice at different time points (0, 15, 30, 45, 60, 90, 120, 240, 480 and 720 minutes) after EtOH (30% ethanol, 0.2 ml/kg bw) or TDHM (2 mg/kg bw), PDHM (2 mg/kg bw) or DHM (2 mg/kg bw) gavage were collected for plasma EtOH concentrations (plasma [EtOH]) assays. (“BW” or “bw”: body weight) • Briefly, the Balb/C mice were put into a restraint tube and the tail was warmed at 37° C. The tail vein at the tip of the tail was punched with a sharp blade. Approximately 0.2 ml venous blood was dropped to a capillary blood collection tube containing lithium heparin (Ram Scientific). Blood samples were centrifuged at 2500 rpm for 20 min. The supernatant was collected and stored at −80° C. until assay. The EtOH content of each blood sample was measured in duplicate along with EtOH standards using the alcohol oxidase reaction procedures (EnzyChrom™ Ethanol Acid Assay Kit, ECET-100) (Liang et al., 2007). The sample preparations were the same as described above.

Balb/C mice [3] = assay: Anti-alcoholism test (agent 30 min after alcohol); assay type: in vivo
Text: Anti-Alcoholism Tests • Groups design and treatment before experiment are as the same as that in Deintoxication test. […]

Balb/C mice [4] = assay: Climbing net test; assay type: in vivo; conditions: 2 mg/kg gavage 30 min before alcohol
Description: Climbing Net Test • Groups design and treatment before experiment are as the same as that in deintoxication test. […] 30 minutes later all mice administrated alcohol (liquid Erguotou, ethonol concentration was diluted to 30%) 0.2 mL/kg BW and placed on a vertical metal net and measured the time when mice climbed on net.

Balb/C mice [5] = assay: Deintoxication test (agent 30 min before alcohol)
mice [6] = assay: Acute toxicity, intragastric administration (maximum tolerated dose)
[7] = 2 mg/kg gavage 30 min after 30% ethanol
[8] = 2 mg/kg gavage 30 min after 30% ethanol, 20 mice
[9] = 2 mg/kg gavage 30 min before 30% ethanol
[10] = 2 mg/kg gavage 30 min before 30% ethanol, 20 mice
[11] = agents intragastric 30 minutes before drinking

triethylammonium 2,3-dihydroxy-5-((2R,3R)-3,5,7-trihydroxy-4-oxochroman-2-yl)phenolate [TDHM]
Dead number (mice [1]; TDHM 636 mg/kg i.p.): 0 | mortality (mice [1]; TDHM 636 mg/kg i.p.): 0% | average dietary of mice (mice [1]; TDHM 636 mg/kg i.p., D1): 3.62 g | average dietary of mice (mice [1]; TDHM 636 mg/kg i.p., D2): 4.67 g | average dietary of mice (mice [1]; TDHM 636 mg/kg i.p., D3): 5.33 g | average dietary of mice (mice [1]; TDHM 636 mg/kg i.p., D4): 6.4 g | average dietary of mice (mice [1]; TDHM 636 mg/kg i.p., D5): 5.53 g | average dietary of mice (mice [1]; TDHM 636 mg/kg i.p., D6): 5.18 g | average dietary of mice (mice [1]; TDHM 636 mg/kg i.p., D7): 5.44 g | Dead number (mice [1]; TDHM 674.16 mg/kg i.p.): 4 | mortality (mice [1]; TDHM 674.16 mg/kg i.p.): 20% | average dietary of mice (mice [1]; TDHM 674.16 mg/kg i.p., D1): 3.96 g | average dietary of mice (mice [1]; TDHM 674.16 mg/kg i.p., D2): 4.8 g | average dietary of mice (mice [1]; TDHM 674.16 mg/kg i.p., D3): 6.7 g | average dietary of mice (mice [1]; TDHM 674.16 mg/kg i.p., D4): 6.98 g | average dietary of mice (mice [1]; TDHM 674.16 mg/kg i.p., D5): 5.58 g | average dietary of mice (mice [1]; TDHM 674.16 mg/kg i.p., D6): 5.58 g | average dietary of mice (mice [1]; TDHM 674.16 mg/kg i.p., D7): 5.73 g | Dead number (mice [1]; TDHM 714.61 mg/kg i.p.): 4 | mortality (mice [1]; TDHM 714.61 mg/kg i.p.): 20% | average dietary of mice (mice [1]; TDHM 714.61 mg/kg i.p., D1): 3.62 g | average dietary of mice (mice [1]; TDHM 714.61 mg/kg i.p., D2): 5.42 g | average dietary of mice (mice [1]; TDHM 714.61 mg/kg i.p., D3): 6.55 g | average dietary of mice (mice [1]; TDHM 714.61 mg/kg i.p., D4): 7.06 g | average dietary of mice (mice [1]; TDHM 714.61 mg/kg i.p., D5): 5.49 g | average dietary of mice (mice [1]; TDHM 714.61 mg/kg i.p., D6): 5.17 g | average dietary of mice (mice [1]; TDHM 714.61 mg/kg i.p., D7): 5.2 g | Dead number (mice [1]; TDHM 757.49 mg/kg i.p.): 8 | mortality (mice [1]; TDHM 757.49 mg/kg i.p.): 40% | average dietary of mice (mice [1]; TDHM 757.49 mg/kg i.p., D1): 3.95 g | average dietary of mice (mice [1]; TDHM 757.49 mg/kg i.p., D2): 5.3 g | average dietary of mice (mice [1]; TDHM 757.49 mg/kg i.p., D3): 7.08 g | average dietary of mice (mice [1]; TDHM 757.49 mg/kg i.p., D4): 8.18 g | average dietary of mice (mice [1]; TDHM 757.49 mg/kg i.p., D5): 5.78 g | average dietary of mice (mice [1]; TDHM 757.49 mg/kg i.p., D6): 5.83 g | average dietary of mice (mice [1]; TDHM 757.49 mg/kg i.p., D7): 6.25 g | Dead number (mice [1]; TDHM 802.94 mg/kg i.p.): 18 | mortality (mice [1]; TDHM 802.94 mg/kg i.p.): 90% | average dietary of mice (mice [1]; TDHM 802.94 mg/kg i.p., D1): 4.6 g | average dietary of mice (mice [1]; TDHM 802.94 mg/kg i.p., D2): 7.66 g | average dietary of mice (mice [1]; TDHM 802.94 mg/kg i.p., D3): 7.08 g | average dietary of mice (mice [1]; TDHM 802.94 mg/kg i.p., D4): 9.04 g | average dietary of mice (mice [1]; TDHM 802.94 mg/kg i.p., D5): 6.89 g | average dietary of mice (mice [1]; TDHM 802.94 mg/kg i.p., D6): 6.23 g | average dietary of mice (mice [1]; TDHM 802.94 mg/kg i.p., D7): 6.27 g | Dead number (mice [1]; TDHM 851.11 mg/kg i.p.): 20 | mortality (mice [1]; TDHM 851.11 mg/kg i.p.): 100% | average dietary of mice (mice [1]; TDHM 851.11 mg/kg i.p., D1): 0 g | average dietary of mice (mice [1]; TDHM 851.11 mg/kg i.p., D2): 0 g | average dietary of mice (mice [1]; TDHM 851.11 mg/kg i.p., D3): 0 g | average dietary of mice (mice [1]; TDHM 851.11 mg/kg i.p., D4): 0 g | average dietary of mice (mice [1]; TDHM 851.11 mg/kg i.p., D5): 0 g | average dietary of mice (mice [1]; TDHM 851.11 mg/kg i.p., D6): 0 g | average dietary of mice (mice [1]; TDHM 851.11 mg/kg i.p., D7): 0 g | effect on dietary and body weight (mice [1]; mice): no significant effect | LD50 (mice [1]; mice, i.p., observed 7 days): 748.69 mg/kg | blood alcohol concentration vs control group treated with saline (Balb/C mice [2]): significantly decreased | reduction of blood alcohol concentration compared with DHM (Balb/C mice [2]): better beneficial effect than DHM | Sleep time M ± SD (Balb/C mice [3]; [7]): 99.29 ± 19.23*^& min | Tolerance time M ± SD (Balb/C mice [3]; [7]): 26.28 ± 17.49 min | Dead number (Balb/C mice [3]; [8]): 0 piece | Rate of drunk (Balb/C mice [3]; [8]): 0% | sleep time in drunk mice comparing with DHM (Balb/C mice [3]; 2 mg/kg gavage 30 min after alcohol): remarkably shorten | climbing time vs normal control mice (Balb/C mice [4]): significantly prolonged | climbing (Balb/C mice [4]; vertical metal net): 471.5 ± 155.89 min | Sleep time M ± SD (Balb/C mice [5]; [9]): 69.29 ± 48.40 min | Tolerance time M ± SD (Balb/C mice [5]; [9]): 43.29 ± 23.44 min | Dead number (Balb/C mice [5]; [10]): 0 piece | Rate of drunk (Balb/C mice [5]; [10]): 0% | holding time comparing with DHM (Balb/C mice [5]; [11]): shorten | tolerance time of righting reflex disappearing comparing with DHM (Balb/C mice [5]; [11]): obviously prolonged | pathological examination of stomach, liver, kidney (mice [6]; mice at MTD, end of 7-day observation): no obvious degeneration, necrosis and other changes | pathology changes in livers, kidneys, hearts and lungs (mice [6]; mice of the toxicity experiments): No degeneration and necrosis pathology changes | deaths during the observation period at MTD (mice [6]; mice, gavage three times a day, 7 days): No deaths
